From the NIST ThermoML archive (doi:10.1021/acs.jced.8b00699)
± gives the expanded uncertainty stated by the source.

Settings: Liquid, Closed cell (Static) method

SMILES	vapor or sublimation pressure (238.15 K) [kPa]	vapor or sublimation pressure (243.15 K) [kPa]	vapor or sublimation pressure (248.15 K) [kPa]	vapor or sublimation pressure (253.15 K) [kPa]	vapor or sublimation pressure (258.15 K) [kPa]	vapor or sublimation pressure (263.15 K) [kPa]	vapor or sublimation pressure (268.15 K) [kPa]	vapor or sublimation pressure (273.15 K) [kPa]	vapor or sublimation pressure (273.66 K) [kPa]	vapor or sublimation pressure (278.16 K) [kPa]	vapor or sublimation pressure (283.15 K) [kPa]	vapor or sublimation pressure (288.15 K) [kPa]	vapor or sublimation pressure (293.15 K) [kPa]	vapor or sublimation pressure (298.15 K) [kPa]	vapor or sublimation pressure (303.16 K) [kPa]	vapor or sublimation pressure (308.18 K) [kPa]	vapor or sublimation pressure (278.15 K) [kPa]	vapor or sublimation pressure (273.65 K) [kPa]	vapor or sublimation pressure (303.15 K) [kPa]	vapor or sublimation pressure (308.15 K) [kPa]
CCCCCCC#N [heptanenitrile]	0.00048 ± 0.00011	0.00085 ± 0.00012	0.00146 ± 0.00013	0.00246 ± 0.00015	0.00408 ± 0.00019	0.00662 ± 0.00028	0.01055 ± 0.00042	0.01647 ± 0.00057	0.01723 ± 0.00058	0.02527 ± 0.00071	0.03801 ± 0.00091	0.05634 ± 0.0012	0.0819 ± 0.0017	0.1175 ± 0.0023	0.1649 ± 0.0027	0.2302 ± 0.0035				
CCCCCCCCC#N [nonanenitrile]									0.00148 ± 0.00013		0.0037 ± 0.00018	0.00585 ± 0.00025	0.00907 ± 0.00037	0.01387 ± 0.00053	0.02079 ± 0.00064	0.03074 ± 0.00079	0.00231 ± 0.00015			
CCCCCCCC#N [octanenitrile]	0.00012 ± 0.00011	0.00021 ± 0.00011	0.00037 ± 0.00012	0.00064 ± 0.00012	0.00108 ± 0.00012	0.0018 ± 0.00014	0.00295 ± 0.00016	0.00476 ± 0.00021			0.01175 ± 0.00047	0.01796 ± 0.00059	0.02693 ± 0.00073	0.0398 ± 0.00094			0.00758 ± 0.00031	0.00502 ± 0.00022	0.05793 ± 0.0013	0.08314 ± 0.0017
